Patent publication US7923465B2, “Cannabinoid receptor ligands, pharmaceutical compositions containing them, and process for their preparation” (priority 2005, dated 2011)

Assays:
hCB2 = hCB2 (Homo sapiens, UniProt P34972); test: In vitro binding assay using hCB2-CHO membranes, [3H]-CP-55,940 displacement (Protocol IV); set-up: expressed in transfected cells; host or cells: CHO (hCB2-CHO, generated in-house); details: hCB2-CHO membranes, [3H]-CP-55,940 displacement
Summary of the method: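 Compounds were tested at a single 300 nM final concentration for displacing 0.75 nM [3H]-CP-55,940 from hCB2-CHO membranes (1 h, 30 °C, 50 mM Tris pH 7.4, 5 mM MgCl2, 1 mM EDTA, 0.1% BSA). Filter-bound radioactivity was counted, with 0.5 μM unlabelled CP-55,940 for nonspecific binding; results are % displacement.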

CB1 [1] = molecular target: T1, CB1 (Rattus norvegicus, UniProt P20272); test: Rat CB1 receptor binding using brain membrane, [3H]SR141716A displacement (Protocol I); set-up: CB1 receptor present in a rat brain membrane preparation; from tissue; host or cells: rat brain membrane; details: rat brain membrane, [3H]SR141716A displacement
hCB1 = hCB1 (Homo sapiens, UniProt P21554); test: In vitro binding assay using hCB1-CHO membranes, [3H]-CP-55,940 displacement (Protocol II); set-up: expressed in transfected cells; host or cells: CHO (hCB1-CHO, generated in-house)
Method: II. Protocol for In Vitro Assay Using hCB1-CHO Membranes
The reaction was set up in a total volume of 200 μl in PEI (Poly(ethyleneimine)) (0.2%) precoated Millipore GFB (Glass Fibre-B) filter plates. 1 mM stocks of test compounds were prepared in DMSO and tested at a final concentration of 300 nM. The non-specific binding was determined by 0.5 μM CP-55, 940. […] The assay mixture (with or without the test compound) was incubated at 37° C. for 1 hour. The reaction was stopped by rapid filtration under vacuum and the radioactivity on the filters was measured by liquid scintillation counting.

CB1 [2] = molecular target: T1, CB1; test: GTPγS binding assay, CB1 functional assay in rat cerebellar membrane (Protocol VIII); format: biochemical; set-up: 10 μg rat cerebellum membrane; from tissue; host or cells: rat cerebellum membrane, prepared in-house; details: for Per Se % Stimulation: GTPγS binding over basal, rat cerebellar membrane; for % Inhibition of WIN-55212-2 induced stimulation: GTPγS binding
Summary of the method: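 Rat cerebellar membranes (10 μg) incubated 1 h at 30 °C with 0.2 nM [35S]GTPγS, 50 μM GDP, and compound at 1 μM or 300 nM, alone or with 1 μM WIN 55,212-2, in Tris/MgCl2/EGTA/NaCl pH 7.4. Filter-bound radioactivity counted; percent stimulation calculated against basal specific binding (nonspecific defined by 10 μM GTPγS).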

[3] = tested at 1 uM in presence of 1 μM WIN 55,212-2

Sequence of hCB1 (P21554 whole entry): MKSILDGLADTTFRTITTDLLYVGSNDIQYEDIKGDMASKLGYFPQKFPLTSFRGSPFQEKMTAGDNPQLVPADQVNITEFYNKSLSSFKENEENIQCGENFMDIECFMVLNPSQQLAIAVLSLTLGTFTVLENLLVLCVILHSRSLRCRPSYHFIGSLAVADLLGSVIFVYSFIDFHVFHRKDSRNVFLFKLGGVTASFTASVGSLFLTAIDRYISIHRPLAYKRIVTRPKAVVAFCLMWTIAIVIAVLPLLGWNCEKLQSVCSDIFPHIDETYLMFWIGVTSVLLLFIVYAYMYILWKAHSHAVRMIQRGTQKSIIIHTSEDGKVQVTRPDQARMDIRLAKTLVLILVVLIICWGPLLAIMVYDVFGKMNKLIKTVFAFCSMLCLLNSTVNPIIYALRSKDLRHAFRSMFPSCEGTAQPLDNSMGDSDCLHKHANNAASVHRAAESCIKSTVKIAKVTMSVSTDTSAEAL
Sequence of hCB2 (P34972 whole entry): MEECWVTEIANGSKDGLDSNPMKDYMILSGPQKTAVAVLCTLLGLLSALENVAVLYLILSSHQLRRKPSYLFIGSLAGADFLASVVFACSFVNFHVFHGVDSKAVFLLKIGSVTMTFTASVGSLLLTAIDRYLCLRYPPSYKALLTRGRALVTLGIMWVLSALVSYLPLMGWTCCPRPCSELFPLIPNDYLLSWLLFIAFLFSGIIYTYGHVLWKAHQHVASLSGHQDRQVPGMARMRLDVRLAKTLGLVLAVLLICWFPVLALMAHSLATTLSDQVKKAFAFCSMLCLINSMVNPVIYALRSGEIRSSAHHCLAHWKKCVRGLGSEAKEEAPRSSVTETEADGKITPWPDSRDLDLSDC
T1 sequence (P20272 whole entry): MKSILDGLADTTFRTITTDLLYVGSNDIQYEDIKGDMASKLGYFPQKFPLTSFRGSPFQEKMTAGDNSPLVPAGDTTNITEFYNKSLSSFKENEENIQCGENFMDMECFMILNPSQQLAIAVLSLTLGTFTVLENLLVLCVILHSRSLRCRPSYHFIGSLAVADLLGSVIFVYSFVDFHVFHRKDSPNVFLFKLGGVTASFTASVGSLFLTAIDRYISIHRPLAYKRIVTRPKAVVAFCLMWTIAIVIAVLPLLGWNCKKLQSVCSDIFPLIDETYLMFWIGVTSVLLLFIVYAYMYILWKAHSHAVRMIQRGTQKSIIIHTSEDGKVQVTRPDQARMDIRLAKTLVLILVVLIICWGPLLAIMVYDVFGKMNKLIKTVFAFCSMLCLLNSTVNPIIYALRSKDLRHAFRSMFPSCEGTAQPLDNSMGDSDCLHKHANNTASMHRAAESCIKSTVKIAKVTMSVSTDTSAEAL

| Structure (SMILES) | % Displacement Protocol IV (hCB2) | % Displacement Protocol I (CB1 [1]) | % Displacement Protocol II (hCB1) | Per Se % Stimulation (CB1 [2]; tested at 1 uM) | % Inhibition of WIN-55212-2 induced stimulation (CB1 [2]; [3]) | Per Se % Stimulation (CB1 [2]; tested at 300 nM) | % Inhibition of WIN-55212-2 induced stimulation (CB1 [2]; tested at 300 nM in presence of 1 μM WIN 55,212-2) |
| --- | --- | --- | --- | --- | --- | --- | --- |
| O=C(NN1CCCCC1)c1nn(-c2ccccc2Br)c2c1C1CC3CC(C1)CC2C3 [Example 101, N(7)-Piperidino-5-(2-bromophenyl)-5,6-diazatetracyclo[7.3.1.1^3,110^4,8]tetradeca-4(8),6-diene-7-carboxamide] | 0% | 28.8% | 5.75% | – | – | – | – |
| O=C(NCc1ccc(Cl)cc1)c1nn(-c2ccc(Cl)cc2)c2c1C1CC3CC(C1)CC2C3 [Example 112, N(7)-(4*Chlorobenzyl)-5-(4-chlorophenyl)-5,6-diazatetracyclo[7.3.1.1^3,11.0^4,8]tetradeca-4(8)-6-diene-7-carboxamide] | – | 59.9% | 25.76% | – | – | – | – |
| O=C(NCc1ccc(F)cc1)c1nn(-c2ccc(Cl)cc2)c2c1C1CC3CC(C1)CC2C3 [Example 113, N(7)-(4-Fluorobenzyl)-5-(4-chlorophenyl)-5,6-diazatetracyclo[7.3.1.1^3,11.0^4,8]tetradeca-4(8)-6-diene-7-carboxamide] | 17.02% | 55.9% | 27.70% | – | – | – | – |
| O=C(NNc1ccc(Cl)cc1)c1nn(-c2ccc(Cl)cc2)c2c1C1CC3CC(C1)CC2C3 [Example 125] | 5.04% | 52.7% | 22.07% | – | – | – | – |
| CN(NC(=O)c1nn(-c2ccc(Cl)cc2)c2c1C1CC3CC(C1)CC2C3)c1ccc(Cl)cc1Cl.Cl [Example 128] | – | 83% | 37.28% | – | – | – | – |
| O=C(NCCc1ccccc1)c1nn(-c2ccc(Cl)cc2)c2c1C1CC3CC(C1)CC2C3 [Example 136, N(7)-(2-Phenylethyl)-5-(4-chlorophenyl)-5,6-diazatetracyclo[7.3.1.1^3,11.0^4,8]tetradeca-4(8)-6-diene-7-carboxamide] | 15.44% | 31.3% | 1.01% | – | – | – | – |
| O=C(Nc1ccccc1)c1nn(-c2ccccc2)c2c1C1CC3CC(C1)CC2C3 [Example 168, N(7)-Phenyl-5-phenyl-5,6-diazatetracyclo[7.3.1.1^3,11.0^4,8]tetradeca-4(8)-6-diene-7-carboxamide] | – | 37% | 11.47% | – | – | – | – |
| O=C(NN1CCCCC1)c1nn(-c2ccccc2)c2c1C1CC3CC(C1)CC2C3 [Example 169, N(7)-piperidino-5-phenyl-5,6-diazatetracyclo[7.3.1.1^3,11.0^4,8]tetradeca-4(8)-6-diene-7-carboxamide] | – | 19% | 29.65% | – | – | – | – |
| O=C(c1nn(-c2ccccc2)c2c1C1CC3CC(C1)CC2C3)N1CCCCC1 [Example 171, N(7)-phenyl-6,7-diazatetracyclo[7.3.1.1^3,11.0^4,8]tetradeca-4(8)-5-dien-5-yl-piperidino methanone] | 0.56% | 0% | 19.37% | – | – | – | – |
| O=C(NCc1ccccc1)c1nn(-c2ccccc2Cl)c2c1C1CC3CC(C1)CC2C3 [Example 182, N(7)-Benzyl-5-(2-chlorophenyl)-5,6-diazatetracyclo[7.3.1.1^3,11.0^4,8]tetradeca-4(8)-6-diene-7-carboxamide] | 12.78% | 39.9% | 19.35% | – | – | – | – |
| O=C(NN1CCCCC1)c1n[nH]c2c1C1CC3CC(CC2C3)C1 [Example 187, N(7)-Piperidino-5,6-diazatetracyclo[7.3.1.1^3,11.0^4,8]tetradeca-4(8)-6-diene-7-carboxamide] | 0.7% | 6.0% | 15.66% | – | – | – | – |
| O=C(c1n[nH]c2c1C1CC3CC(CC2C3)C1)N1CCCCC1 [Example 188, 6,7-Diazatetracyclo[7.3.1.1^3,11.0^4,8]tetradeca-4(8)-5-dien-5-yl-piperidinomethanone] | 36.01% | 19.5% | 12.5% | – | – | – | – |
| Cn1nc2c(c1C(=O)NN1CCCCC1)C1CC3CC(CC2C3)C1 [Example 189a, N(7)-Piperidino-6-methyl-5,6-diazatetracyclo[7.3.1.1^3,11.0^4,8]tetradeca-4(8)-6-diene-7-carboxamide] | 0.81% | 7% | 21.2% | – | – | – | – |
| Cn1nc(C(=O)NN2CCCCC2)c2c1C1CC3CC(CC2C3)C1 [Example 189b, N(7)-Piperidino-5-methyl-5,6-diazatetracyclo[7.3.1.1^3,11.0^4,8]tetradeca-4(8)-6-diene-7-carboxamide] | 2.56% | 3% | 24.03% | – | – | – | – |
| O=C(c1nn(-c2ccc(Cl)cc2)c2c1C1CCC2C1)N1CCCCC1 (stereo not drawn) [Example 210, 1-(4-Chlorophenyl)-4,5,6,7-tetrahydro-1H-4,7-methano-indazol-3-yl piperidino methanone] | 17.69% | 12.6% | 11.58% | – | – | – | – |
| O=C(NCc1ccc(C(F)(F)F)cc1)c1nn(-c2ccc(Cl)cc2)c2c1C1CCC2C1 (stereo not drawn) [Example 227, N(3)-(4-Trifluoromethylbenzyl)-1-(4-chlorophenyl)-4,5,6,7-tetrahydro-H-4,7-methano-indazole-3-carboxamide] | – | 25.3% | 3.51% | – | – | – | – |
| O=C(NNc1ccc(Cl)c(Cl)c1)c1nn(-c2ccc(Cl)cc2)c2c1C1CCC2C1 (stereo not drawn) [Example 231, N(3)-[(3,4-Dichlorophenyl)amino]-1-(4-chlorophenyl)-4,5,6,7-tetrahydro-H-4,7-methano-indazole-3-carboxamide] | – | 31.9% | 30.79% | – | – | – | – |
| O=C(NN(c1ccccc1)c1ccccc1)c1nn(-c2ccc(Cl)cc2)c2c1C1CCC2C1 (stereo not drawn) [Example 236] | – | 75.5% | 55.25% | 8.0% | 83.0% | – | – |
| C[C@H](NC(=O)c1nn(-c2ccc(Cl)cc2Cl)c2c1C1CCC2C1)c1ccccc1 (stereo partly drawn) [Example 252, N(3)-[S-(1-phenylethyl)]-1-(2,4-dichlorophenyl)-4,5,6,7-tetrahydro-1H-4,7-methano-indazole-3-carboxamide] | – | 99.8% | 74.52% | – | – | 48.2% | 58.8% |
| COC(=O)[C@@H](NC(=O)c1nn(-c2ccc(F)cc2F)c2c1C1CCC2C1)c1ccc(F)cc1 (stereo partly drawn) [Example 326, Methyl (2S)-2-[5-(2,4-difluorophenyl)-4,5-diazatricyclo[5.2.1.0.^2,6]deca-2(6),3-dien-3-ylcarboxamido]-2-(4-fluorophenyl)ethanoate] | 99.18% | – | 73.99% | – | – | – | – |
| CC(C)(NC(=O)c1nn(-c2ccc(F)cc2F)c2c1C1CCC2(C)C1(C)C)c1ccccc1 (stereo not drawn) [Example 407] | 88.44% | – | 87.28% | – | – | – | – |
| CN(NC(=O)c1nn(-c2ccc(Cl)cc2Cl)c2c1C1CCC2c2ccccc21)C1CCCCC1 (stereo not drawn) [Example 504, N(12)-[(N′-Cyclohexyl-N′-methyl)amino]-10-(2,4-dichlorophenyl)-10,11-diazatetracyclo[6.5.2.0^2,7.0^9,13]pentadeca-2,4,6,9(13),11-pentaene-12-carboxamide] | – | 79.7% | 62.9% | – | – | – | – |
| CN(NC(=O)c1nn(-c2ccc(Cl)cc2Cl)c2c1C1CCC2c2ccccc21)c1ccc(Cl)cc1Cl (stereo not drawn) [Example 505, N(12)-{N′-[(2,4-Dichlorophenyl)-N′-methyl]amino}-10-(2,4-dichlorophenyl)-10,11-diazatetracyclo[6.5.2.0^2,7.0^9,13]pentadeca-2,4,6,9(13),11-pentaene-12-carboxamide] | – | 90.6% | 77.51% | 15.6% | 94.4% | – | – |
